US7799955B2, “Isoflavone metabolites” (priority 1999, dated 2010)
In brackets after ≈: the same amount, converted by molar mass. Like-named read-outs stand apart in the source and are kept apart here.

What was measured:
MCF-7 cells [1] = assay: MTS in vitro cytotoxicity / cell viability assay on MCF-7 breast cancer cells; type: cell-based; conditions: for IC50: Homo sapiens; for inhibition of MCF7 cells at low concentration / proliferative activity of cancer cells at low concentration: concentrations of less than or equal to 10 μM
Protocol: Compound A was compared with genistein to test the cell viability of MCF-7 cells. […] The cell viability was tested using the MTS in vitro cytotoxicity assay. This is considered the most convenient assay because of its ease of use, accuracy and rapid indication of toxicity (Malich G et al., Toxicology 124(3): 179-92 (1997).

[2] = system: MDA-MB-468 (estrogen negative) cancer cells; assay: Inhibition of MDA-MB-468 (estrogen negative) breast cancer cells; type: cell-based; conditions: for IC50, MDA-MB-468 cells / IC50: day 6; for IC50: Homo sapiens, MDA-MB-468, 144 h
PC3 cells = assay: IC50 against PC3 cells; type: cell-based; conditions: Homo sapiens, PC-3
LNCap cells = assay: IC50 against LNCap cells; type: cell-based; conditions: Homo sapiens
MCF-7 cells [3] = conditions: cited from earlier work; for effect on growth of MCF-7 cells at low concentration: at <10 μM
[4] = day 6 of incubation, Examples 10 and 11
[5] = MCF7, Example 8 table, read-out: IC50 against MCF-7 cells
[6] = MCF7, 24 h, 1 day of incubation, Example 8, read-out: IC50, cell viability of MCF-7 cells
[7] = MCF7, 48 h, 2 days of incubation, Example 8, read-out: IC50, cell viability of MCF-7 cells
[8] = MCF7, 72 h, 3 days of incubation, Example 8, read-out: IC50, cell viability of MCF-7 cells
[9] = MCF7, 144 h, day 6 of incubation, Examples 10 and 11, read-out: IC50, MCF-7 estrogen positive breast cancer cells
[10] = MCF7, 8 hours incubation, Example 9, read-out: IC50, MCF7 cells
[11] = MCF7, Example 9, incubation time not given, read-out: IC50, inhibitory effect on MCF7 cells (no significant effect)

Question: Which “IC50, MCF-7 estrogen positive breast cancer cells” value (MCF-7 cells [1]; [4]) does the source give for `CC(C(=O)c1c(O)cc(O)cc1O)c1ccc(O)cc1` (centres unmarked) [6-hydroxy-O-Dma] here?
Answer: 33 µg/mL (≈ 120 µM)

Question: What about the “IC50, MDA-MB-468 cells” value [2] of the same molecule?
Answer: 43 µg/mL (≈ 157 µM)

Question: For `CC(C(=O)c1ccc(O)cc1O)c1ccc(O)c(O)c1` (centres unmarked) [(V), 1-(2,4,dihydroxyphenyl)-2-(3,4-dihydroxyphenyl)-propan-1-one], which IC50 (MCF-7 cells [1]; [5]) is on record?
Answer: 10 to 20 µg/mL (≈ 36.5 to 72.9 µM)

Question: Which IC50 (PC3 cells) does the source give for `C=C(C(=O)c1ccc(O)cc1O)c1ccc(O)c(O)c1` [(VI), 1-(2,4-di-hydroxyphenyl)-2-(3,4-dihydroxyphenyl)-prop-2-cn-1-one] here?
Answer: 6.2 µg/mL (≈ 22.8 µM)

Question: And the IC50 (MCF-7 cells [1]; [5])?
Answer: 3.2 µg/mL (≈ 11.8 µM)

Question: And the IC50 (LNCap cells)?
Answer: 7 µg/mL (≈ 25.7 µM)

Question: With `O=C1c2ccc(O)cc2OCC1c1ccc(O)c(O)c1` (centres unmarked) [(VII), 3′-hydroxy-dihydrodaidzen] as the molecule, how does the IC50 (MCF-7 cells [1]; [5]) read?
Answer: ~28 µg/mL (≈ 103 µM)

Question: With `C=C(C(=O)c1cc(O)c(O)cc1O)c1ccc(O)cc1` [(VIII), 1-(2,4,5-trihydroxyphenyl)-2-(4-hydroxyphenyl)-prop-2-cn-1-one] as the molecule, how does the IC50 (MCF-7 cells [1]; [5]) read?
Answer: < 8 µg/mL

Question: Which “effect on growth of MCF-7 cells at low concentration” value (“effect on growth of MCF-7 cells” below) (MCF-7 cells [1]; 2.5 micrograms/ml, within 8 hours of incubation and at days 1 and 2) does the source give for `CC(C(=O)c1cc(O)c(O)cc1O)c1ccc(O)cc1` (centres unmarked) [Compound A, 1-(2,4,5-trihydroxyphenyl)-2-(4-hydroxyphenyl)-propan-1-one] here?
Answer: inhibited the growth

Question: What about the IC50 (MCF-7 cells [1]; [6]) of the same molecule?
Answer: 6 µg/mL (≈ 21.9 µM)

Question: And the IC50 (MCF-7 cells [1]; [7])?
Answer: 6.5 µg/mL (≈ 23.7 µM)

Question: What about the IC50 (MCF-7 cells [1]; [8]) of the same molecule?
Answer: 7 µg/mL (≈ 25.5 µM)

Question: And the IC50 (MCF-7 cells [1]; [9])?
Answer: 2.1 µg/mL (≈ 7.66 µM)

Question: What about the IC50 (MCF-7 cells [1]; [10]) of the same molecule?
Answer: 6 µg/mL (≈ 21.9 µM)

Question: What about the IC50 (MCF-7 cells [1]; [5]) of the same molecule?
Answer: 6 to 10 µg/mL (≈ 21.9 to 36.5 µM)

Question: What about the IC50 (MCF-7 cells [1]; MCF7, incubations at 24, 48, 72 and 144 hours, Example 9, read-out: IC50, MCF7 cells) of the same molecule?
Answer: 4 to 7 µg/mL (≈ 14.6 to 25.5 µM)

Question: What about the “inhibition of MCF7 breast cancer cells compared with genistein, daidzein, precursors and metabolites” value (MCF-7 cells [1]; concentrations of 15-40 μg/ml, Example 9) of the same molecule?
Answer: significant inhibition

Question: And the “inhibition of MCF7 cells at low concentration” value (MCF-7 cells [1]; Example 9)?
Answer: no significant inhibition

Question: And the “proliferative activity of cancer cells at low concentration” value (MCF-7 cells [1]; MCF7, Example 9)?
Answer: no proliferative activity

Question: And the IC50 [2]?
Answer: 6.8 µg/mL (≈ 24.8 µM)

Question: And the “times more inhibitive than O-Dma and 6-hydroxy-O-Dma” value ([2]; MDA-MB-468, day 6)?
Answer: 3-7 times

Question: For `O=c1c(-c2ccc(O)cc2)coc2cc(O)c(O)cc12` [Factor 2, 6,7,4′-trihydroxyisoflavone], which IC50 (MCF-7 cells [1]; [9]) is on record?
Answer: 12 µg/mL (≈ 44.4 µM)

Question: Which “IC50, MCF-7 estrogen positive breast cancer cells” value (MCF-7 cells [1]; [4]) does the source give for `CC(C(=O)c1ccc(O)cc1O)c1ccc(O)cc1` (centres unmarked) [O-Dma, O-desmethylangolensin] here?
Answer: 38 µg/mL (≈ 147 µM)

Question: And the “IC50, MDA-MB-468 cells” value [2]?
Answer: 20 µg/mL (≈ 77.4 µM)

Question: With `COc1ccc(-c2coc3cc(O)cc(O)c3c2=O)cc1` [biochanin A] as the molecule, how does the “effect on growth of MCF-7 cells” value (MCF-7 cells [3]) read?
Answer: can enhance the growth

Question: What about the IC50 (MCF-7 cells [1]; MCF7, 72 and 144 hours incubation, Example 9, read-out: IC50, inhibitory effect on MCF7 cells) of the same molecule?
Answer: 18 to 23 µg/mL (≈ 63.3 to 80.9 µM)

Question: With `O=c1c(-c2ccc(O)cc2)coc2cc(O)ccc12` [daidzein] as the molecule, how does the “effect on growth of MCF-7 cells” value (MCF-7 cells [3]) read?
Answer: can enhance the growth

Question: And the IC50 (MCF-7 cells [1]; [11])?
Answer: ≥ 36 µg/mL

Question: Which “effect on growth of MCF-7 cells” value (MCF-7 cells [3]) does the source give for `Oc1ccc([C@H]2COc3cc(O)ccc3C2)cc1` [equol] here?
Answer: can enhance the growth

Question: And the IC50 (MCF-7 cells [1]; [11])?
Answer: ≥ 36 µg/mL

Question: With `COc1ccc(-c2coc3cc(O)ccc3c2=O)cc1` [formononetin] as the molecule, how does the IC50 (MCF-7 cells [1]; [11]) read?
Answer: ≥ 36 µg/mL

Question: Which “effect on growth of MCF-7 cells” value (MCF-7 cells [3]) does the source give for `O=c1c(-c2ccc(O)cc2)coc2cc(O)cc(O)c12` [genistein] here?
Answer: can enhance the growth

Question: What about the IC50 (MCF-7 cells [3]; induced by 1-(o-chlorophenyl)-1-(p-chlorophenyl)-2,2,2-trichloroethane, 5-octylphenol, 4-nonylphenol, read-out: IC50, inhibition of proliferation of MCF-7 cells induced by environmental chemicals) of the same molecule?
Answer: 25 to 33 µM

Question: And the IC50 (MCF-7 cells [1]; [6])?
Answer: 32 µg/mL (≈ 118 µM)

Question: And the IC50 (MCF-7 cells [1]; [7])?
Answer: 22 µg/mL (≈ 81.4 µM)

Question: And the IC50 (MCF-7 cells [1]; [8])?
Answer: 15 µg/mL (≈ 55.5 µM)

Question: And the IC50 (MCF-7 cells [1]; MCF7, 144 h, 6 days of incubation, Example 8, read-out: IC50, cell viability of MCF-7 cells)?
Answer: 18 µg/mL (≈ 66.6 µM)

Question: And the IC50 (MCF-7 cells [1]; [10])?
Answer: > 40 µg/mL

Question: What about the IC50 (MCF-7 cells [1]; MCF7, 48 hours incubation, Example 9, read-out: IC50, MCF7 cells) of the same molecule?
Answer: 38 µg/mL (≈ 141 µM)

Question: What about the IC50 (MCF-7 cells [1]; MCF7, 144 hours incubation, Example 9, read-out: IC50, MCF7 cells) of the same molecule?
Answer: 15 µg/mL (≈ 55.5 µM)

Question: What about the “effect on growth of MCF-7 cancer cells at low concentration” value (MCF-7 cells [1]; concentrations <10 μM, Example 8) of the same molecule?
Answer: enhance rather than inhibit the growth

Question: And the “inhibition of MCF7 cells at low concentration” value (MCF-7 cells [1]; Example 9)?
Answer: no significant inhibition

Question: What about the “proliferative activity of cancer cells at low concentration” value (MCF-7 cells [1]; MCF7, Example 9) of the same molecule?
Answer: some proliferative activity

Question: What about the IC50 [2] of the same molecule?
Answer: 8.8 µg/mL (≈ 32.6 µM)
